Source: ChEMBL document CHEMBL1201861, “Genomics of Drug Sensitity in Cancer screening data, Wellcome Trust Sanger Institute”
Values belong to the compound of their own block, whether it stands above or below them.

Assays:
Experiment in all cases: cells
Assay type in all cases: functional, cell-based, Homo sapiens
NCI-H446 = conditions: Homo sapiens, NCI-H446;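 further: growth inhibition of NCI-H446 cells determined by a cell viability assay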
Description: SANGER: Inhibition of human NCI-H446 cell growth in a cell viability assay.

NCI-H1581 = conditions: Homo sapiens, NCI-H1581;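 further: cell growth inhibition read out by a viability assay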
Description: SANGER: Inhibition of human NCI-H1581 cell growth in a cell viability assay.

LXF-289 cell line = conditions: Homo sapiens, LXF-289
Description: SANGER: Inhibition of human LXF-289 cell growth in a cell viability assay.

ES3 = conditions: Homo sapiens, ES3;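 further: growth inhibition of ES3 cells, read out with a cell viability assay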
Description: SANGER: Inhibition of human ES3 cell growth in a cell viability assay.

Becker = conditions: Homo sapiens, Becker;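 further: growth inhibition of Becker cells, read out with a cell viability assay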
Description: SANGER: Inhibition of human Becker cell growth in a cell viability assay.

ML-2 = conditions: Homo sapiens, ML-2;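 further: growth inhibition of ML-2 cells, measured with a cell viability readout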
Description: SANGER: Inhibition of human ML-2 cell growth in a cell viability assay.

COLO-684 = conditions: Homo sapiens, COLO-684
Description: SANGER: Inhibition of human COLO-684 cell growth in a cell viability assay.

LU-139 = conditions: Homo sapiens, LU-139
Description: SANGER: Inhibition of human LU-139 cell growth in a cell viability assay.

NB10 = conditions: Homo sapiens, NB10;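 further: growth inhibition of NB10 cells, read out by a cell viability assay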
Description: SANGER: Inhibition of human NB10 cell growth in a cell viability assay.

NB17 = conditions: Homo sapiens, NB17;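 further: growth inhibition of NB17 cells, read out with a cell viability assay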
Description: SANGER: Inhibition of human NB17 cell growth in a cell viability assay.

NCI-H23 = conditions: Homo sapiens, NCI-H23;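 further: cell viability assay measuring growth inhibition of NCI-H23 cells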
Description: SANGER: Inhibition of human NCI-H23 cell growth in a cell viability assay.

KP-N-YS = conditions: Homo sapiens, KP-N-YS;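 further: cell viability assay measuring inhibition of cell line growth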
Description: SANGER: Inhibition of human KP-N-YS cell growth in a cell viability assay.

697 = conditions: Homo sapiens
Description: SANGER: Inhibition of human 697 cell growth in a cell viability assay.

LS-1034 = conditions: Homo sapiens, LS-1034
Description: SANGER: Inhibition of human LS-1034 cell growth in a cell viability assay.

HH = conditions: Homo sapiens, HH
Description: SANGER: Inhibition of human HH cell growth in a cell viability assay.

no-11 = conditions: Homo sapiens;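 further: growth inhibition of human NO-11 cells, read out with a cell viability assay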
Description: SANGER: Inhibition of human no-11 cell growth in a cell viability assay.

KARPAS-299 = conditions: Homo sapiens, KARPAS-299
Description: SANGER: Inhibition of human KARPAS-299 cell growth in a cell viability assay.

KURAMOCHI = conditions: Homo sapiens, KURAMOCHI;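 further: growth inhibition of KURAMOCHI cells, read out with a cell viability assay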
Description: SANGER: Inhibition of human KURAMOCHI cell growth in a cell viability assay.

A704 = conditions: Homo sapiens, A704;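 further: growth inhibition of human A704 cells, read out with a cell viability assay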
Description: SANGER: Inhibition of human A704 cell growth in a cell viability assay.

LB2518-MEL = conditions: Homo sapiens, LB2518-MEL;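 further: growth inhibition of human LB2518-MEL cells, measured with a cell viability assay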
Description: SANGER: Inhibition of human LB2518-MEL cell growth in a cell viability assay.

SW 954 = conditions: Homo sapiens, SW 954;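 further: growth inhibition of SW954 human cancer cells, read out as cell viability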
Description: SANGER: Inhibition of human SW954 cell growth in a cell viability assay.

NCI-H82 = conditions: Homo sapiens, NCI-H82;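 further: growth inhibition of NCI-H82 cells, measured with a cell viability readout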
Description: SANGER: Inhibition of human NCI-H82 cell growth in a cell viability assay.

EW-1 = conditions: Homo sapiens, EW-1;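 further: growth inhibition of the human EW-1 cell line, read out by a cell viability assay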
Description: SANGER: Inhibition of human EW-1 cell growth in a cell viability assay.

D-263MG = conditions: Homo sapiens, D-263MG
Description: SANGER: Inhibition of human D-263MG cell growth in a cell viability assay.

MZ7-mel = conditions: Homo sapiens, MZ7-mel;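 further: growth inhibition of human MZ7-mel cells, measured by a cell viability assay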
Description: SANGER: Inhibition of human MZ7-mel cell growth in a cell viability assay.

BV-173 = conditions: Homo sapiens, BV-173
Description: SANGER: Inhibition of human BV-173 cell growth in a cell viability assay.

TE-1 = conditions: Homo sapiens, TE-1;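 further: growth inhibition of the human TE-1 cell line, read out with a cell viability assay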
Description: SANGER: Inhibition of human TE-1 cell growth in a cell viability assay.

VA-ES-BJ = conditions: Homo sapiens, VA-ES-BJ;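 further: growth inhibition of the VA-ES-BJ cell line, read out by a cell viability assay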
Description: SANGER: Inhibition of human VA-ES-BJ cell growth in a cell viability assay.

HCE-T = conditions: Homo sapiens, HCE-T;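 further: cell viability assay read-out, reporting inhibition of HCE-T cell growth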
Description: SANGER: Inhibition of human HCE-T cell growth in a cell viability assay.

MLMA = conditions: Homo sapiens, MLMA;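 further: growth inhibition of MLMA cells (human), determined through a cell viability readout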
Description: SANGER: Inhibition of human MLMA cell growth in a cell viability assay.

KNS-81-FD = conditions: Homo sapiens, KNS-81-FD;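 further: growth inhibition of KNS-81-FD cells, read out with a cell viability assay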
Description: SANGER: Inhibition of human KNS-81-FD cell growth in a cell viability assay.

A253 cell line = conditions: Homo sapiens, A253;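 further: growth inhibition of A253 cells, read out with a cell viability assay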
Description: SANGER: Inhibition of human A253 cell growth in a cell viability assay.

JVM-2 = conditions: Homo sapiens, JVM-2;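 further: growth inhibition of JVM-2 cells determined by a cell viability assay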
Description: SANGER: Inhibition of human JVM-2 cell growth in a cell viability assay.

LS-123 = conditions: Homo sapiens, LS-123
Description: SANGER: Inhibition of human LS-123 cell growth in a cell viability assay.

OCI-AML2 = conditions: Homo sapiens, OCI-AML2;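 further: growth inhibition of OCI-AML2 cells, read out with a cell viability assay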
Description: SANGER: Inhibition of human OCI-AML2 cell growth in a cell viability assay.

OVCAR-4 = conditions: Homo sapiens, OVCAR-4;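 further: growth inhibition of human OVCAR-4 cells, measured with a cell viability assay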
Description: SANGER: Inhibition of human OVCAR-4 cell growth in a cell viability assay.

NCI-H1648 = conditions: Homo sapiens, NCI-H1648;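 further: cell viability assay measuring inhibition of NCI-H1648 cell growth, from the Sanger screening data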
Description: SANGER: Inhibition of human NCI-H1648 cell growth in a cell viability assay.

NMC-G1 = conditions: Homo sapiens, NMC-G1;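 further: growth inhibition of the NMC-G1 cell line, measured with a cell viability read-out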
Description: SANGER: Inhibition of human NMC-G1 cell growth in a cell viability assay.

SCC-15 = conditions: Homo sapiens, SCC-15;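 further: growth inhibition of SCC-15 cells, read out with a cell viability assay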
Description: SANGER: Inhibition of human SCC-15 cell growth in a cell viability assay.

NCI-H69 = conditions: Homo sapiens, NCI-H69;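 further: growth inhibition of the cell line, read out with a cell viability assay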
Description: SANGER: Inhibition of human NCI-H69 cell growth in a cell viability assay.

BB30-HNC = conditions: Homo sapiens, BB30-HNC;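 further: growth inhibition of the cultured cell line, read out by a cell viability assay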
Description: SANGER: Inhibition of human BB30-HNC cell growth in a cell viability assay.

NCI-H1650 = conditions: Homo sapiens, NCI-H1650;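 further: growth inhibition of human NCI-H1650 cells measured by a cell viability assay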
Description: SANGER: Inhibition of human NCI-H1650 cell growth in a cell viability assay.

MHH-NB-11 = conditions: Homo sapiens, MHH-NB-11;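 further: growth inhibition of human MHH-NB-11 cells, read out by a cell viability assay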
Description: SANGER: Inhibition of human MHH-NB-11 cell growth in a cell viability assay.

ES5 = conditions: Homo sapiens, ES5;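 further: growth inhibition of human ES5 cells, read out by a cell viability assay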
Description: SANGER: Inhibition of human ES5 cell growth in a cell viability assay.

HD-MY-Z = conditions: Homo sapiens, HD-MY-Z;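 further: growth inhibition of HD-MY-Z cells, read out with a cell viability assay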
Description: SANGER: Inhibition of human HD-MY-Z cell growth in a cell viability assay.

LAMA-84 = conditions: Homo sapiens, LAMA-84;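 further: growth inhibition of LAMA-84 cells, read out with a cell viability assay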
Description: SANGER: Inhibition of human LAMA-84 cell growth in a cell viability assay.

ES8 = conditions: Homo sapiens, ES8;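 further: growth inhibition of human ES8 cells, read out with a cell viability assay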
Description: SANGER: Inhibition of human ES8 cell growth in a cell viability assay.

Calu-6 = conditions: Homo sapiens, Calu-6;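 further: growth of human Calu-6 cells, read out by a cell viability assay, IC50 marking inhibition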
Description: SANGER: Inhibition of human Calu-6 cell growth in a cell viability assay.

Structure (SMILES): COc1cc2c(Nc3ccc(NC(=O)c4ccccc4)cc3)ncnc2cc1OCCCN1CCOCC1
IC50 (NCI-H446): > 4000 nM
IC50 (NCI-H1581): 1680 nM
IC50 (LXF-289 cell line): 2540 nM
IC50 (ES3): 473 nM
IC50 (Becker): > 4000 nM
IC50 (ML-2): > 4000 nM
IC50 (COLO-684): > 4000 nM
IC50 (LU-139): 3830 nM
IC50 (NB10): > 4000 nM
IC50 (NB17): > 4000 nM
IC50 (NCI-H23): > 4000 nM
IC50 (KP-N-YS): > 4000 nM
IC50 697: 739 nM
IC50 (LS-1034): > 4000 nM
IC50 (HH): > 4000 nM
IC50 (no-11): > 4000 nM
IC50 (KARPAS-299): > 4000 nM
IC50 (KURAMOCHI): > 4000 nM
IC50 (A704): > 4000 nM
IC50 (LB2518-MEL): > 4000 nM
IC50 (SW 954): 836 nM
IC50 (NCI-H82): > 4000 nM
IC50 (EW-1): > 4000 nM
IC50 (D-263MG): 2710 nM
IC50 (MZ7-mel): > 4000 nM
IC50 (BV-173): 1760 nM
IC50 (TE-1): > 4000 nM
IC50 (VA-ES-BJ): 2790 nM
IC50 (HCE-T): > 4000 nM
IC50 (MLMA): > 4000 nM
IC50 (KNS-81-FD): > 4000 nM
IC50 (A253 cell line): > 4000 nM
IC50 (JVM-2): > 4000 nM
IC50 (LS-123): > 4000 nM
IC50 (OCI-AML2): 3680 nM
IC50 (OVCAR-4): > 4000 nM
IC50 (NCI-H1648): > 4000 nM
IC50 (NMC-G1): > 4000 nM
IC50 (SCC-15): 3730 nM
IC50 (NCI-H69): > 4000 nM
IC50 (BB30-HNC): 2540 nM
IC50 (NCI-H1650): > 4000 nM
IC50 (MHH-NB-11): > 4000 nM
IC50 (ES5): 1000 nM
IC50 (HD-MY-Z): > 4000 nM
IC50 (LAMA-84): 1760 nM
IC50 (ES8): 498 nM
IC50 (Calu-6): > 4000 nM

IC50 (NCI-H1581): 67.6 nM
IC50 (LXF-289 cell line): 72.8 nM
IC50 (ES3): 359 nM
IC50 (Becker): 242 nM
IC50 (NB10): 215 nM
IC50 (NB17): 1060 nM
IC50 (NCI-H23): 348 nM
IC50 (LS-1034): 1360 nM
IC50 (no-11): 2840 nM
IC50 (KURAMOCHI): 1940 nM
IC50 (LB2518-MEL): 178 nM
IC50 (SW 954): 467 nM
IC50 (EW-1): 227 nM
IC50 (D-263MG): 283 nM
IC50 (MZ7-mel): 1730 nM
IC50 (TE-1): 957 nM
IC50 (HCE-T): 231 nM
IC50 (MLMA): 185 nM
IC50 (KNS-81-FD): 248 nM
IC50 (A253 cell line): 570 nM
IC50 (LS-123): 2200 nM
IC50 (OVCAR-4): 610 nM
IC50 (NCI-H1648): 1120 nM
IC50 (NMC-G1): 505 nM
IC50 (SCC-15): 223 nM
IC50 (BB30-HNC): 162 nM
IC50 (NCI-H1650): 4920 nM
IC50 (ES5): 884 nM
IC50 (HD-MY-Z): 395 nM
IC50 (ES8): 119 nM
IC50 (Calu-6): 887 nM
Structure (SMILES): CC(C)c1ccccc1Cc1cc(C(=O)Nc2ccc(S(=O)(=O)c3ccccc3C(C)(C)C)cc2)c(O)c(O)c1O
IC50 (VA-ES-BJ): 39.6 nM
